Patent US12121552B2, “Pseudomonas chlororaphis species and its use in the control of fish diseases caused by bacteria and fungi” (T3 Bioscience, Inc., priority 2022, dated 2024)
Converted amounts (≈) assume the structure as drawn.

Experiments:
Assay in all cases: MIC/MLC broth dilution assay against fish pathogens
Assay type in all cases: cell-based
Streptococcus agalactiae = settings: (TSAY/TSBY)/28° C./48 h; for MIC: Streptococcus agalactiae, read-out: Minimum Inhibitory Concentration
Streptococcus iniae = settings: (TSAY/TSBY)/28° C./48 h; for MIC: Streptococcus iniae, read-out: Minimum Inhibitory Concentration
Tenacibaculum maritimum = settings: (MA/MB)/15° C./8 days
Piscirickettsia salmonis = settings: L15/15° C./21 days, read-out: Minimum Inhibitory Concentration
[1] = test system: Renibacterium salmoninarum; settings: KDM-2/15° C./14 days, read-out: Minimum Inhibitory Concentration
Flavobacterium columnare = settings: TYES/20° C./2 days, read-out: Minimum Inhibitory Concentration
Aeromonas salmonicida = settings: (TSA/TSB)/20° C./24 h, read-out: Minimum Inhibitory Concentration
Vibrio parahaemolyticus = settings: (TSA2/TSB2)/37° C./24 h, read-out: Minimum Inhibitory Concentration

Row | Compound | MIC (Streptococcus agalactiae) [µg/mL] | MIC (Streptococcus iniae) [µg/mL] | Minimum Lethal Concentration (Tenacibaculum maritimum) [µg/mL] | MIC (Tenacibaculum maritimum; Tenacibaculum maritimum, read-out: Minimum Inhibitory Concentration) [µg/mL] | MIC (Piscirickettsia salmonis) [µg/mL] | MIC [1] [µg/mL] | MIC (Flavobacterium columnare) [µg/mL] | MIC (Aeromonas salmonicida) [µg/mL] | Minimum Lethal Concentration (Streptococcus agalactiae) [µg/mL] | Minimum Lethal Concentration (Streptococcus iniae) [µg/mL] | MIC (Vibrio parahaemolyticus) [µg/mL]
1 | CCCCCCc1c(O)cc(CCCCC)cc1O (single isomer, unassigned) [Peak 2] | 6.25 (≈ 23.6 µM) | 0.39 (≈ 1.47 µM) | 200 | 3.13 (≈ 11.8 µM) | 12.5 (≈ 47.3 µM) | 50 (≈ 189 µM) | 0.5 (≈ 1.89 µM) |  |  |  | 
2 | CCCCCCCc1cc(O)c(CCCCCC)c(O)c1 (single isomer, unassigned) [Peak 3] | 6.25 (≈ 21.4 µM) | 0.39 (≈ 1.33 µM) |  |  | 12.5 (≈ 42.7 µM) | 50 (≈ 171 µM) | 0.39 (≈ 1.33 µM) | 100 (≈ 342 µM) | 50 | 25 | 1.56 (≈ 5.33 µM)
